Assay results taken from ChEMBL document CHEMBL1148618, “Novel benzodiazepine photoaffinity probe stereoselectively labels a site deep within the membrane-spanning domain of the cholecystokinin receptor” (J Med Chem, 2006).

Assays:
[1] = biological target: T1, Cholecystokinin receptor type A (Rattus norvegicus, UniProt P30551); assay: Displacement of [125I]D-Tyr-Gly-[(Nle28,31)CCK-26-33] from rat CCK receptor expressed in CHO cells; assay type: cell-based
T1 sequence (P30551 whole entry): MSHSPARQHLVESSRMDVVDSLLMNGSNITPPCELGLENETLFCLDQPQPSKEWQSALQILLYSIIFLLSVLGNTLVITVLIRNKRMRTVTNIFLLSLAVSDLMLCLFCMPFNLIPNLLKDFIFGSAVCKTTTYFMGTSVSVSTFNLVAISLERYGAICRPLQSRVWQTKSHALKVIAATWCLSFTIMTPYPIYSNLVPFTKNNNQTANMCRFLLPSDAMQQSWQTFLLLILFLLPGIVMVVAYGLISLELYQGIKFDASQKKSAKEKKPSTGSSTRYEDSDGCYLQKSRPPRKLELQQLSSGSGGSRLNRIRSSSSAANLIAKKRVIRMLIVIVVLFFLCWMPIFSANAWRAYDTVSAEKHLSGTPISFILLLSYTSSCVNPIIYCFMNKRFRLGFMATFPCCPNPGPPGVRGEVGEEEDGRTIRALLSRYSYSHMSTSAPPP

[2] = biological target: T2, Cholecystokinin receptor type A (Rattus norvegicus) (UniProt P30551); assay: Activity at CCK receptor in SD rat at 1 uM expressed in pancreatic acinar cell line; assay type: functional; settings: filed as antagonist
T2 sequence (whole entry): T1 sequence (P30551 whole entry)

[3] = biological target: T1, Cholecystokinin receptor type A; assay: Intrinsic agonistic activity at CCK receptor in SD rat at 1 uM expressed in pancreatic acinar cell line; assay type: functional

Structure (SMILES) | IC50 [1] [nM] | Activity [2] | EC50 [3] [nM]
COc1ccc(N(C)C(=O)CN2C(=O)[C@H](NC(=O)Nc3cccc(C(=O)c4ccccc4)c3)C(=O)N(c3ccccc3)c3ccccc32)cc1 | 490 | – | –
COc1ccc(N(C(=O)CN2C(=O)[C@@H](NC(=O)Nc3cccc(C(=O)c4ccccc4)c3)C(=O)N(c3ccccc3)c3ccccc32)C(C)C)cc1 | 710 | Antagonist | –
COc1ccc(N(C(=O)CN2C(=O)[C@H](NC(=O)Nc3cccc(C(=O)c4ccccc4)c3)C(=O)N(c3ccccc3)c3ccccc32)C(C)C)cc1 | 61 | – | 150
COc1ccc(N(C)C(=O)CN2C(=O)[C@@H](NC(=O)Nc3cccc(C(=O)c4ccccc4)c3)C(=O)N(c3ccccc3)c3ccccc32)cc1 | 470 | – | –
